Target: recombinant human NSD2 (Homo sapiens (Human), UniProt O96028)
Assay: NSD2 inhibitory activity, modified RBC HotSpot HMT Assay (3H-SAM, oligonucleosome substrate)
Type: biochemical
Details: recombinant human NSD2 (2 nM), chicken oligonucleosomes 0.05 mg/ml, 3H-SAM 1 μM, 1 hour at 30° C.
Description: Exemplary compounds were tested for NSD2 inhibitory activity using a modified RBC HotSpot HMT Assay.
A reaction mixture was prepared by adding oligonucleosomes from Chicken (0.05 mg/ml) to freshly prepared reaction buffer containing 50 mM Tris-HCl (pH 8.5), 50 mM NaCl, 5 mM MgCl2, 0.01% Brij35, 1 mM DTT, and 1% DMSO followed by the addition of recombinant human NSD2, (amino acids 2-end) with N-terminal His tag (2 nM; GenBank Accession No. NM_001042424; MW=155.5 kDa; expressed in Sf9 insect cells) and gentle mixing. The test compounds were diluted in DMSO, added to the reaction mixture in nanoliter amounts by using Acoustic Technology (Echo 550, LabCyte Inc. Sunnyvale, CA) and incubated for 20 minutes at room temperature. The reaction was initiated by the addition of S-Adenosyl-L-[methyl-^3H] methionine (3H-SAM; 1 μM), and the mixture was incubated for 1 hour at 30° C. The reaction mixture was delivered to filter paper and the methylated substrate was quantified by scintillation counting. Data analysis was performed using Excel and GraphPad Prism software for IC50 curve fits. For additional information on the histone methyltransferase assay, see, for example, Horiuchi K Y, et al., “Assay Development for Histone Methyltransferases,” Assay Drug Dev Technol. 2013 May; 11 (4): 227-36.

Sequence of recombinant human NSD2 (O96028 2-1365 limits assumed): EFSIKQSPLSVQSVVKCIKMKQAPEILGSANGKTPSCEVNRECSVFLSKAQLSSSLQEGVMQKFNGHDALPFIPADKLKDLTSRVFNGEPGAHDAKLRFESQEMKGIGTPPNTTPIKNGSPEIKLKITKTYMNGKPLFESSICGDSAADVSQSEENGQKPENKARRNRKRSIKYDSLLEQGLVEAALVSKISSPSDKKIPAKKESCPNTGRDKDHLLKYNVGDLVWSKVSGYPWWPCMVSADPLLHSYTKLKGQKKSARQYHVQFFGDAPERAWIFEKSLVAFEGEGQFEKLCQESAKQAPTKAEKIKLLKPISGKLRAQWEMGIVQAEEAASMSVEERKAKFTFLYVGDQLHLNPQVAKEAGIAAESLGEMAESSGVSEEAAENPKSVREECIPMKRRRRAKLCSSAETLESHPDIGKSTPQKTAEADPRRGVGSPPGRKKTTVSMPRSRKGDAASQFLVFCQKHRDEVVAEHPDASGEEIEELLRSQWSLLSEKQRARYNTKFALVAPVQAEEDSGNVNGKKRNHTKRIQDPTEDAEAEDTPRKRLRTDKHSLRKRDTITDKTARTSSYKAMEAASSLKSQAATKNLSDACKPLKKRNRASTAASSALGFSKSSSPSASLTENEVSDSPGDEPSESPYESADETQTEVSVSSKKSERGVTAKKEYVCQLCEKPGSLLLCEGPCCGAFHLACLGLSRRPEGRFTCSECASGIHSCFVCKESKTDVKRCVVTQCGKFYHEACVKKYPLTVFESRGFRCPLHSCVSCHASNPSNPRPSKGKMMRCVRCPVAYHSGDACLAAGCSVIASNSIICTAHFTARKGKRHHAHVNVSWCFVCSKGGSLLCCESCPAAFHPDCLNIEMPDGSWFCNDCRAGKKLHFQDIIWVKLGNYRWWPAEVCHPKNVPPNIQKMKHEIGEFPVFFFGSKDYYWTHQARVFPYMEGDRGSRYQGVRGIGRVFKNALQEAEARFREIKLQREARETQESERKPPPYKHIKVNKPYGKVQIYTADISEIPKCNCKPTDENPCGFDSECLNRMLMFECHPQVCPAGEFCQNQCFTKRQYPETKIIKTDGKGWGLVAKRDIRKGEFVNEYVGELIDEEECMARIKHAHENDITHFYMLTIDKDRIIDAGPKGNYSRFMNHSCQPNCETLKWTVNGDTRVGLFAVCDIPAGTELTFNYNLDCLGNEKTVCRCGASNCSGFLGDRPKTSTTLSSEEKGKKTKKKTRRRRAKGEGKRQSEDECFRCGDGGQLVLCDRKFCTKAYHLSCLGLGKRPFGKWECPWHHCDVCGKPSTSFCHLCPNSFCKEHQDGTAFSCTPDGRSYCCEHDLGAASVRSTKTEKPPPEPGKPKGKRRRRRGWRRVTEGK

| IC50 | SMILES |
| --- | --- |
| 1 to 10 nM | COc1cc(F)c(-c2ccc(N3CCC[C@](N)([C@H](O)C(F)F)C3)c(Cn3cnc4c(N)ncnc43)c2)cc1F [Compound I-1, (S)-1-((R)-3-amino-1-(3-((6-amino-9H-purin-9-yl)methyl)-2′,5′-difluoro-4′-methoxy-[1,1′-biphenyl]-4-yl)piperidin-3-yl)-2,2-difluoroethan-1-ol] |
| 10 to 1000 nM | COc1cc(F)c(-c2cnc(N3CCC[C@](N)([C@H](O)C(F)F)C3)c(Cn3cnc4c(N)ncnc43)c2)cc1F [II-1, (S)-1-((R)-3-amino-1-(3-((6-amino-9H-purin-9-yl)methyl)-5-(2,5-difluoro-4-methoxyphenyl)pyridin-2-yl)piperidin-3-yl)-2,2-difluoroethan-1-ol] |
| > 1000 nM | COc1cc(F)c(-c2ccc(N3CCC[C@](N)([C@H](O)C(F)F)C3)c(Cn3cnc4c(N)ncnc43)n2)cc1F [III-1, (S)-1-((R)-3-amino-1-(2-((6-amino-9H-purin-9-yl)methyl)-6-(2,5-difluoro-4-methoxyphenyl)pyridin-3-yl)piperidin-3-yl)-2,2-difluoroethan-1-ol] |
